Measured values from patent publication US8642013B2, “Nano-scale contrast agents and methods of use” (priority 2008, dated 2014).

Test: blood concentration and clearance after injection in tumor-bearing rats
Assay type: in vivo, Fischer female rats
Details: high iodine dose (1,344 mgl/mL)
Experimental: Contrast-enhanced mammography was performed with a commercial digital mammography system (Senographe 2000D, GE Healthcare) at 49 kVp and 63 mAs with a rhodium target and an extra copper filter of 0.3 mm thickness. These settings were used to shape the x-rays to have optimal energies for iodine. […] Initial studies were performed with high doses of the nano-probe to obtain a vascular image. A pre-contrast image (FIG. 2(a)) and post-contrast images were acquired 1, 5, 10, and 15 minutes after tail vein injection of the nano-probe. […] In the case of an adult human, this would correspond to a dose of about 654 mL of the nano-probe (assuming a blood volume of five liters), which is prohibitively large for use in humans. However, this high dose was used to clearly visualize the blood vessels that the mammography system was capable of detecting.
Another control group was injected with a conventional iodinated agent (iohexol) at an iodine dose equivalent to the high dose of 1,344 mgl/mL of the nano-probe. (See FIG. 7). […] (See FIG. 8).

CC(=O)N(CC(O)CO)c1c(I)c(C(=O)NCC(O)CO)c(I)c(C(=O)NCC(O)CO)c1I (stereo not shown) [iohexol]
clearance: rapidly cleared via the kidneys
